Test: in vitro
Conditions: human, hela cells, % viability

Row | SMILES | viability at 28.5 h, 10 µM [%]
1 | c1ncc(OC2CCN(CCN3CCOCC3)C2)nc1OCCN1CCOCC1 (stereo not shown) [CBK084492] | 97.6
2 | OCCCN1CCC(Oc2cncc(OCCN3CCOCC3)n2)C1 (stereo not shown) [CBK084494] | 95.9
3 | N#CCCCN1CCC(Oc2cncc(OCCN3CCOCC3)n2)C1 (stereo not shown) [CBK084495] | 103
4 | c1ccc(CCN2CCC(Oc3cncc(OCCN4CCOCC4)n3)C2)cc1 (stereo not shown) [CBK084497] | 87.6
5 | COc1ccc(-n2[nH]c(C)c(Cc3c(Cl)cccc3Cl)c2=O)cc1 [CBK084521] | 94.5
6 | CCC1CCCCN1C(=O)c1ccc(C)s1 (stereo not shown) [CBK084526] | 96.6
7 | CCC1CCCCN1C(=O)c1ccc(OC)c(OC)c1 (stereo not shown) [CBK084527] | 117
8 | CCC1CCCCN1C(=O)C1CCCCC1 (stereo not shown) [CBK084528] | 90
9 | CC(C)(C)OC(=O)N1CCN(Cc2ccc(N)c3ccccc23)CC1 [CBK084530] | 109
10 | CSc1ccc(-c2cnc(N)c(-c3ccc(C(=O)N4CCOCC4)cc3)n2)cc1 [CBK084539] | 109
11 | COc1ccc2[nH]c3c(c2c1)CCNC31CCN(CCSc2ccccc2)C1 (stereo not shown) [CBK084541T] | 92
12 | O=C(Nc1[nH]nc(O)c1Cc1c(Cl)cccc1Cl)C1CCCCC1 [CBK084558] | 92.9
13 | O=C(CCN1CCCC12CCc1[nH]c3ccccc3c1C2)c1ccc(F)cc1 (stereo not shown) [CBK084593] | 92.6
14 | c1ccc(OCCN2CCC3(C2)NCCc2[nH]ccc23)cc1 (stereo not shown) [CBK084595T] | 90.9
15 | COC(=O)NCCc1c[nH]c2ccc(OC)cc12 [CBK084597] | 98
16 | CN1CCN(C(c2ccc(O)cc2)c2nnnn2Cc2ccccc2)CC1 (stereo not shown) [CBK084719] | 94.8
17 | Cc1ccc(-c2nnn(CC(=O)N(CCO)C(C(=O)NC3CCCC3)c3ccc(F)cc3)n2)o1 (stereo not shown) [CBK084756] | 89.2
18 | NC(=O)c1c(NC(=O)CSc2nnc(-c3ccccc3)n2CC2CCCO2)sc2c1CCC2 (stereo not shown) [CBK084789] | 110
19 | O=C(Nc1ccccc1)NC1CC2CCC(C1)N2Cc1nnnn1Cc1ccco1 (stereo not shown) [CBK085071] | 107
20 | CC(C)CC(NC(=O)c1ccccc1)C(=O)OCC(=O)Nc1nc2ccccc2s1 (stereo not shown) [CBK085134] | 92.5
21 | Cc1ccc(C(=O)N(Cc2ccncc2)C2CCCCC2)cc1C [CBK085386] | 97.9
22 | CCSc1nnc(-c2cccc(C)c2)n1CC1CCCO1 (stereo not shown) [CBK085413] | 93.1
23 | CSc1nnc(-c2cccc(C)c2)n1CC1CCCCC1 [CBK085418] | 100
24 | CCSc1nnc(-c2cccc(C)c2)n1CC1CCCCC1 [CBK085419] | 96.3

Row | SMILES | viability at 28.5 h, 10 µM [%]
25 | Cc1cccc(-c2nnc(SCC3CC3)n2CC2CCCCC2)c1 [CBK085423] | 87.7
26 | Nc1ncc(Br)nc1N1CCC[C@@H]1CO [CBK085450] | 105
27 | COc1cc(N2CCCNCC2)ncn1 [CBK085485C] | 91.6
28 | OC[C@H]1CCCN1c1nc(Br)cn2ccnc12 [CBK085496] | 101
29 | O=C1N=C(NC2CCCCCC2)SC1C(=O)N1CCCCCC1 (stereo not shown) [CBK085513] | 93.1
30 | CS(=O)(=O)Nc1ccc2cc(-c3ccsc3)cnc2n1 [CBK085665] | 102
31 | COc1ccc(C(C)C)cc1-c1cnc2nc(NS(C)(=O)=O)ccc2c1 [CBK085672] | 102
32 | CS(=O)(=O)Nc1ccc2cc(-c3ccc(Oc4ccccc4)cc3)cnc2n1 [CBK085674] | 98
33 | COc1cc(F)ccc1-c1nc2ncccc2cc1NS(C)(=O)=O [CBK085692] | 89
34 | CS(=O)(=O)Nc1cc2cccnc2c(-c2ccc3c(c2)CCO3)n1 [CBK085705] | 101
35 | Nc1cc2ccccc2c(-c2ccsc2)n1 [CBK085710] | 85.3
36 | CC(C)(C)c1ccc(-c2nc(N)cc3ccccc23)cc1 [CBK085720] | 109
37 | Nc1cc2ccccc2c(-c2cccc(C(F)(F)F)c2)n1 [CBK085721] | 101
38 | Nc1cc2ccccc2c(-c2ccc3c(c2)OCCCO3)n1 [CBK085722] | 102
39 | CS(=O)(=O)c1ccc(-c2nc(N)cc3ccccc23)cc1 [CBK085724] | 96.1
40 | COc1cc(-c2nc(N)cc3ccccc23)cc(OC)c1OC [CBK085726] | 102
41 | CCNC(=O)Nc1cc2ccccc2c(-c2ccc(F)cc2OC)n1 [CBK085731] | 62.9
42 | COc1cc(-c2nc(NC(=O)C(C)C)cc3ccccc23)cc(OC)c1OC [CBK085741] | 106
43 | CS(=O)(=O)Nc1cc2ccccc2c(-c2cccnc2)n1 [CBK085747] | 108
44 | CC(C)C(=O)Nc1cc2ccccc2c(-c2cc(F)cc(F)c2)n1 [CBK085775] | 95.4
45 | CC(C)C(=O)Nc1cc2ccccc2c(-c2ccc(N(C)C)cc2)n1 [CBK085776] | 90.6
46 | COc1ccc([C@@]23CC[C@@H](NC(=O)Nc4ccc(Cl)cc4Cl)C[C@@H]2CN(C)C3)cc1OC [CBK085798T] | 88.5
47 | Cc1ccc(C(=O)N[C@@H]2C[C@H](C)CC[C@H]2C(C)C)cc1C [CBK085823] | 87.1
48 | CC(=O)Nc1ccc(Sc2cnccn2)cc1 [CBK085838] | 89.7

Row | SMILES | viability at 28.5 h, 10 µM [%]
49 | Oc1ccccc1Sc1cnccn1 [CBK085840] | 104
50 | c1ccc2c(Sc3cnccn3)cccc2c1 [CBK085841] | 90.7
51 | Nc1ccccc1Sc1ccccn1 [CBK085854] | 103
52 | c1ccc(Sc2cccc3ccccc23)nc1 [CBK085856] | 91.8
53 | CCOC(=O)c1cnc(SCCc2ccccc2)nc1N [CBK085871] | 88.1
54 | Cc1nc(-c2ccc(S(=O)(=O)NCC3CC3)s2)cs1 [CBK085873] | 83.9
55 | CC(C)(C)c1ccc(NC(=O)N2CCCN(Cc3ccccc3)CC2)cc1 [CBK085876] | 116
56 | O=S(=O)(c1ccccc1)c1ccccc1C(F)(F)F [CBK085887] | 104
57 | Cc1ccc(S(=O)(=O)N(C)CCCC#N)cc1 [CBK085945] | 106
58 | NC(=O)C1CCN(C(=S)NC2CC3C=CC2C3)CC1 (stereo not shown) [CBK085970] | 97.4
59 | CC(=O)c1nnn(-c2ccc(Cl)cc2Cl)c1C [CBK085972] | 86.7
60 | CC1CCCN(C(=S)NC2CC3CCC2C3)C1 (stereo not shown) [CBK085999] | 92.7
61 | CC(C)c1ccc(NC(=O)CN2CCN(c3ccc(C(F)(F)F)cn3)CC2)cc1 [CBK086000] | 81.9
62 | CC(C)(C)OC(=O)N1CCC(CNS(=O)(=O)c2cccs2)CC1 [CBK086019] | 100
63 | Nc1nc(-c2ccc3c(c2)CCC(=O)N3)cs1 [CBK086133] | 80.8
64 | O=S(=O)(NCc1ccccc1)c1ccc(Cl)cc1 [CBK086159] | 86.7
65 | CCCc1cnc(N2CCN(CC(=O)Nc3ccc(C(C)=O)cc3)CC2)nc1 [CBK086194] | 104
66 | COc1cc2c(cc1OC)C(C)N(C(=O)Nc1ccc3c(c1)OCCO3)CC2 (stereo not shown) [CBK086204] | 94.8
67 | CCNc1nc(=S)[nH]c2sc3c(c12)CCC(C)C3 (stereo not shown) [CBK086242] | 89.2
68 | S=c1[nH]nc(-c2ccc(Cl)cc2)n1-c1cccnc1 [CBK086427] | 83.6
69 | CNC(=O)Nc1ccc(C(C)(C)C)cc1Br [CBK086434] | 111
70 | COc1ccccc1C1CCN(C(=O)c2ccc(C(C)(C)C)cc2)CC1 [CBK086469] | 84.3
71 | O=C(O)/C=C/C(=O)Nc1ccccc1Br [CBK086488] | 106
72 | Cc1cc(COC(=O)Nc2ccc(Cl)cc2)no1 [CBK086560] | 93.4

Row | SMILES | viability at 28.5 h, 10 µM [%]
73 | CN(C)C(=O)CSc1cnc2ccccc2n1 [CBK086626] | 86.3
74 | CCOC(=O)c1cnc2cc(C)ccn2c1=O [CBK086650] | 93.1
75 | COC(=O)C1CC(O)CN1S(=O)(=O)c1cccs1 (stereo not shown) [CBK086668] | 87
76 | O=C1CC(c2ccccc2F)C2=C(COC2=O)N1 (stereo not shown) [CBK086692] | 92
77 | CNS(=O)(=O)c1c(C)nn(-c2ccccc2)c1C [CBK086715] | 102
78 | CN(C(=O)c1ccccc1N)c1ccccc1 [CBK086716] | 97.6
79 | Cc1ccc(NC(=O)c2ccccc2)s1 [CBK086724] | 95.2
80 | CCOC(=O)c1[nH]c2ccccc2c1NC(C)=O [CBK086755] | 92.7
81 | O=C1c2ccccc2C(=O)N1CCc1c[nH]c2ccc(O)cc12 [CBK086794] | 76
82 | COc1ccc(C(=O)NC(N2CCCCC2)C(Cl)(Cl)Cl)cc1 (stereo not shown) [CBK087021] | 89.1
83 | CN(Cc1ccccc1)C(C#N)c1c[nH]c2ccccc12 (stereo not shown) [CBK087062] | 95.3
84 | O=C1NCCCc2nc(Nc3ccccc3)sc21 [CBK087091] | 83.8
85 | CC1CN(C)C(C)CC1OC(=O)C(c1ccccc1)c1ccccc1 (stereo not shown) [CBK087393] | 105
86 | C/C(Cl)=C\CN1C(=O)C(=O)c2cc(C)ccc21 [CBK087601] | 92.3
87 | O=C(CNC(=O)c1ccccc1Cl)Nc1ccc(Br)cc1C(=O)c1ccccc1 [CBK087691] | 101
88 | O=C(CSCc1ccccc1)Nc1ccc(S(=O)(=O)N2CCOCC2)cc1 [CBK087885] | 93.3
89 | CCc1ccccc1NC(=O)Cc1ccc(OC)cc1 [CBK087898] | 85.7
90 | COc1ccc(OC(=O)c2cccc(F)c2)c(C(C)=O)c1 [CBK088044] | 89
91 | O=C(NCCOc1ccccc1)NC(=O)C1CCNCC1 [CBK088187T] | 119
92 | CCCCNc1nccnc1-c1ccccc1 [CBK088477] | 90.1
93 | C=CCNc1nccnc1-c1cccc(O)c1 [CBK088505] | 88.2
94 | CCNc1nccnc1-c1ccncc1 [CBK088586] | 119
95 | CCNc1nccnc1-c1ccc(O)cc1 [CBK088589] | 108
96 | c1ccc(-c2nccnc2NCc2ccco2)cc1 [CBK088642] | 94.3

Same assay, conditions: human, hela cells, % viability, bulk resorufin, single well

Row | SMILES | viability at 28.5 h, 10 µM [%]
97 | CCOC(=O)N1CCC2(CC1)Oc1ccc(-c3ccccc3)cc1O2 [CBK085500] | 101
